Like-named read-outs stand apart in the source and are kept apart here.
Legend:
human BCMA-MFC = target: T1, human BCMA-MFC (Homo sapiens, UniProt Q02223); experiment: SPR (Biacore 4000) binding kinetics to human BCMA-MFC; conditions: 25° C.
T1 construct: (human BCMA-MFC); made in house
Method: The CM5 Biacore sensor surface was derivatized by amine coupling with a monoclonal mouse anti-human Fc antibody (GE, #BR-11008-39) to capture purified anti-BCMA mAbs and anti-BCMA×anti-CD3 bispecific mAbs. All Biacore binding studies were performed in a buffer composed of 0.01 M HEPES pH 7.4, 0.15M NaCl, 3 mM EDTA, 0.05% v/v Surfactant P20 (HBS-ET running buffer). […] Antigen samples were then injected over the anti-BCMA and anti-BCMA×anti-CD3 bispecific mAbs captured surfaces at a flow rate of 30 μL/minute. Antibody-reagent association was monitored for 5 minutes while dissociation in HBS-ET running buffer was monitored for 10 minutes. All of the binding kinetics experiments were performed at 25° C. Kinetic association (ka) and dissociation (kd) rate constants were determined by fitting the real-time sensorgrams to a 1:1 binding model using Scrubber 2.0c curve fitting software. Binding dissociation equilibrium constants (KD) and dissociative half-lives (t½) were calculated from the kinetic rate constants as: […]

[1] = tested on: Jurkat/NFATLuc.3C7 cells + MOLP-8 cells; experiment: Jurkat/NFATLuc reporter bioassay with MOLP-8 cells; type: cell-based; conditions: highest RLU / lowest RLU
Method: (§1) Activity of the anti-BCMA×anti-CD3 bispecific antibodies were assessed in a Jurkat/NFATLuc reporter bioassay utilizing several cell lines with varying levels of BCMA surface expression. The Jurkat cells were engineered to express an NFAT-luciferase reporter (Jurkat/NFATLuc.3C7), and 50,000 Jurkat reporter cells were combined with 50,000 BCMA positive (Daudi, MM1-S, NCI-H929, OPM-2, RPMI-8226, MOLP-8, or Raji) or BCMA negative (HEK293) cells in Thermo Nunclon delta 96 well white microwell plates (Thermo Scientific, Cat #136102) in 50 ul of assay media (RPMI media with 10% FBS and 1% P/S/G). Three-fold serial dilutions of the BCMA×CD3 bispecific antibodies (mAb25441 D or mAb25442D), or a bivalent anti-BCMA antibody (mAb21581) were immediately added in 50 μL of assay buffer. The plates were gently agitated and incubated in a 37° C., 5% CO2 incubator for 4-6 hours. NFAT-Luciferase activity was determined using Promega One-Glo (Cat #E6130) and a Perkin Elmer Envision plate reader. RLU were plotted in GraphPad Prism using a four-parameter logistic equation over a 12-point response curve to calculate EC50 values. […] The signal to noise (S:N) is determined by taking the ratio of the highest RLU on the curve to the lowest.

MC38/BCMA tumors = experiment: Syngenic MC38/BCMA tumor model, combination with anti-PD-1 (Example 20); type: in vivo; conditions: REGN5458 0.04 or 0.24 mg/kg plus anti-mouse PD-1 (Clone RPM1-14) 4 mg/kg
Method: Implantation and measurement of syngenic tumors: C57BL/6 mice that express human CD3deg in place of murine CD3deg (CD3-humanized mice) were subcutaneously implanted with 1×10^6 MC38 colon carcinoma cells that have been engineered to express full-length human BCMA (MC38/BCMA).
The mice were administered these Abs twice more on days 7 and 11 for a total of three doses, and tumor growth was assessed throughout the experiment.
(§2) Calculation of syngenic tumor growth and inhibition: In order to determine tumor volume by external caliper, the greatest longitudinal diameter (length in mm) and the greatest transverse diameter (width in mm) were determined. Tumor volumes based on caliper measurements were calculated by the formula: Volume (mm^3)=(length×width^2)/2.

[2] = tested on: Jurkat/NFATLuc.3C7 cells + OPM-2 cells; experiment: Jurkat/NFATLuc reporter bioassay with OPM-2 cells; type: cell-based; conditions: highest RLU / lowest RLU
Method: as §1

[3] = tested on: primary human plasma cells (CD138+); experiment: Autologous T cell-mediated killing of human plasma cells; type: cell-based
Method: The specific killing of enriched CD138^+ human or cynomolgus monkey plasma cells by unstimulated autologous T cells was assessed by flow cytometry. Human or cynomolgus bone marrow aspirates and blood were provided within 24 hours of harvest. CD138^+ plasma cells were enriched from bone marrow by positive selection using the EasySep™ Human CD138^+ Positive Selection kit according to the manufacturer's instructions. PBMC from whole blood were isolated by density separation. PBMC were labeled with 1 μM of Vybrant™ CFDA-SE fluorescent tracking dye. […] At the end of the culture, surviving CD138^+ plasma cells were analyzed by flow cytometry, utilizing fixable LIVE/DEAD dye and plasma cell specific cell surface markers. Percent viability was normalized to control condition (plasma cells in the presence of PBMC only). T cell activation was assessed by flow cytometry. Activation is reported as the percentage of CD2^+/CD4^+ or CD2^+/CD8^+/CD16^− T cells expressing CD25. Percent T cell activation was normalized to control condition (plasma cells in the presence of PBMC only).

B16/BCMA tumors = experiment: Syngenic B16/BCMA tumor model in CD3-humanized mice (Example 16); type: in vivo, mouse; conditions: for Average Tumor Size (mm3) ± SEM on Day 5 / Average Tumor Size (mm3) ± SEM on Day 10 / Average Tumor Size (mm3) ± SEM on Day 14 / Average Tumor Size (mm3) ± SEM on Day 18: B16/BCMA Tumor
Method: To determine the in vivo efficacy of anti-BCMA×anti-CD3 bispecific antibodies (Abs), a syngenic tumor study was performed in mice expressing human CD3. C57BL/6 mice that express human CD3deg in place of murine CD3deg (CD3-humanized mice) were subcutaneously implanted with either 0.5×10^6 B16 melanoma cells that have been engineered to express full-length human BCMA (B16/BCMA cells) or 1×10^6 MC38 colon carcinoma cells that have been engineered to express full-length human BCMA (MC38/BCMA). […] The mice were administered these Abs twice more on days 4 and 7 for a total of three doses, and tumor growth was assessed throughout the experiment.
Implantation and measurement of syngenic tumors: C57BL/6 mice that express human CD3deg in place of murine CD3deg (CD3-humanized mice) were subcutaneously implanted with either 0.5×10^6 B16F10 melanoma cells that have been engineered to express full-length human BCMA (B16/BCMA cells) or 1×10^6 MC38 colon carcinoma cells that have been engineered to express full-length human BCMA (MC38/BCMA). […] The mice were administered these Abs twice more on days 4 and 7 for a total of three doses, and tumor growth was assessed throughout the experiment.
as §2

T1 sequence (Q02223 with tags, fused parts or gaps): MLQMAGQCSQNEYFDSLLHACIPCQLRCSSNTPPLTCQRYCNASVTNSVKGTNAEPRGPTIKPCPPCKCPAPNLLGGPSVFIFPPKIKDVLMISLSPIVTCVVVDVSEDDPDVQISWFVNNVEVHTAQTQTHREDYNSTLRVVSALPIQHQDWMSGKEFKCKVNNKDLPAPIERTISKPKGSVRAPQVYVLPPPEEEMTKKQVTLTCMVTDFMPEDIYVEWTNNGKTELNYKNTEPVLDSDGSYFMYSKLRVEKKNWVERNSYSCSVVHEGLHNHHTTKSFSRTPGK

Substance: REGN5459: anti-BCMA×anti-CD3 bispecific antibody: BCMA HCVR of mAb21581 (SEQ 66), CD3 HCVR of mAb7221G20 (SEQ 98), common LCVR SEQ 82
- ka (human BCMA-MFC): 449000 M⁻¹ s⁻¹
- kd (human BCMA-MFC): ≤1e-05 s⁻¹
- S:N [1]: 31

Substance: REGN5458: anti-BCMA×anti-CD3 bispecific antibody: BCMA HCVR of mAb21581 (SEQ 66), CD3 HCVR of mAb7221G (SEQ 90), common LCVR SEQ 82
- anti-tumor efficacy of the combination (in words) (MC38/BCMA tumors): superior anti-tumor efficacy
- S:N [2]: 8
- Cytotoxic Kill Max % Cytotoxicity ([3]; Human Donor 1 plasma cells, autologous primary human T cells, E:T 10:1, 72 hours): 91%
- EC50 ([3]; Human Donor 1 plasma cells, autologous primary human T cells, read-out: T Cell Activation (% CD25 Upregulation) CD8+ T cells EC50): 0.214 nM
- Cytotoxic Kill Max % Cytotoxicity ([3]; Human Donor 2 plasma cells, autologous primary human T cells, E:T 10:1, 72 hours): 89%
- EC50 ([3]; Human Donor 2 plasma cells, autologous primary human T cells, E:T 10:1, 72 hours, read-out: Cytotoxic Kill EC50): 0.191 nM
- T Cell Activation (% CD25 Upregulation) CD8+ T cells % Activation ([3]; Human Donor 2 plasma cells, autologous primary human T cells, maximum): 36%
- maximum percent cytotoxicity ([3]; human donor 1): 91%
- EC50 ([3]; human donor 1, CD25, read-out: CD8+ T cell activation EC50): 0.214 nM
- EC50 ([3]; human donor 1, read-out: cytotoxicity EC50): 0.0428 nM
- maximum percent CD8+ T cell activation ([3]; human donor 2): 36%
- maximum percent cytotoxicity ([3]; human donor 2): 89%
- EC50 ([3]; human donor 2, CD25, read-out: CD8+ T cell activation EC50): 0.86 nM
- EC50 ([3]; human donor 2, read-out: cytotoxicity EC50): 0.191 nM
- Average Tumor Size (mm3) ± SEM on Day 5 (B16/BCMA tumors; 0.04 mg/kg): 3.3 ± 2.2 mm3
- Average Tumor Size (mm3) ± SEM on Day 10 (B16/BCMA tumors; 0.04 mg/kg): 15.4 ± 12.5 mm3
- Average Tumor Size (mm3) ± SEM on Day 14 (B16/BCMA tumors; 0.04 mg/kg): 81.4 ± 49.2 mm3
- Average Tumor Size (mm3) ± SEM on Day 18 (B16/BCMA tumors; 0.04 mg/kg): 127.2 ± 63.9 mm3
- Average Tumor Size (mm3) ± SEM on Day 5 (B16/BCMA tumors; 0.4 mg/kg): 0.0 ± 0.0 mm3
- Average Tumor Size (mm3) ± SEM on Day 10 (B16/BCMA tumors; 0.4 mg/kg): 0.0 ± 0.0 mm3
- Average Tumor Size (mm3) ± SEM on Day 14 (B16/BCMA tumors; 0.4 mg/kg): 8.1 ± 4.4 mm3
- Average Tumor Size (mm3) ± SEM on Day 18 (B16/BCMA tumors; 0.4 mg/kg): 47.1 ± 17.0 mm3
- tumor growth (in words) (B16/BCMA tumors; B16/BCMA, 0.4 or 0.04 mg/kg, three doses): suppress the growth of both tumor lines in a dose-dependent manner
